Assay results from patent publication US4647552A, “Process for obtaining ready for fertilization sexual products from sexually mature fish” (Kozponti Valto-es Hitelbank Rt. Innovacios Alap, priority 1983, dated 1987).
Where a SMILES comes first, the peptide text is derived from it. [ ]: non-standard residue; d: D form. pGlu = O=C1CC[C@@H](C(=O)O)N1

Tests used:
Assay type in all cases: in vivo
[1] = system: sterlet (Acipenser ruthenus L.); assay: Induced artificial propagation of sterlet; settings: single dose of 70 μg if ripe for ovulation, or last of the 10 μg doses, injected
Protocol: From the population of a given habitat mature fish are selected and then transported to the place of propagation. Sexes are segregated and the stage of ripening of eggs from females is determined. Fish are considered to be ripe for ovulation if the nucleus is situated on the periphery of the egg cell. Sperms of males are not examined as in the population of a given habitat the sexual products of males and females are practically in the same stage of ripening. If fish are ripe for ovulation, decapeptide of formula (II) in a single dose of 70 μg each is injected into each fish, including males. If fish are not ripe for ovulation, they should be kept at the temperature of natural spawning and the above compound should be administered in doses of 10 μg each, at least 2 but at most 12 times as long as the nucleus moves from the centre to the periphery. The number of treatments depends on the actual stage of maturity of sexual products in comparison to the stage "ripe for ovulation". This process of ripening lasts at least 100 but at most 630 day-grades in the temperature interval of 12°-18° C. (Day-grade means number of days multiplied by the mean temperature of water used in the ripening period.) Ovulation takes place 24-32 hours after the administration of the last dose. Thereafter sexual products are obtained in 40-60 minutes.

[2] = system: perch [Perca fluviatilis L.]; assay: Induced artificial propagation of perch; settings: single dose of 20 μg if ripe for ovulation, or last of the 2 μg doses
Protocol: Mature fish are selected from a population and transported to the place of propagation. Maturity of sexual products is determined according to Example 1 but sexes are not segregated. Fish ripe for ovulation--includingmales--are treated with a single dose of 20 μg of decapeptide of formula (II). Fish not yet ripe for ovulation should be kept at the temperature of natural spawning and the above-mentioned compound should be administered in doses of 2 μg each at least 2 but at most 10 times as long as the nucleus of egg cell moves from the centre to the periphery. The number of treatments depends on the actual stage of maturity of sexual products in comparison to the stage "ripe for ovulation". The process of ripening lasts at least 100 day-grades, in extreme cases to 400 day-grades, in the water temperature-interval of 12°-16° C. Spawning takes place 24-36 hours after the administration of the last dose. Perch can be spawned easily in tanks; in such a case stripping of sexual products is not necessary.

[3] = system: horse mackerel (Trachurus trachurus L.); assay: Induced artificial propagation of horse mackerel; settings: single dose of 10 μg injected, water temperature 18°-24° C.
Protocol: From among horse mackerels caught alive from the Adriatic in November specimens having a length of at least 240 mm are transported to the place of propagation. (Fish of this size are already mature sexually.) The compound of formula (II) is injected into each fish in a single dose of 10 μg. Ovulation takes place in 24 hours at the water temperature of 18°-24° C. Sexual products are obtained in 2 hours. In case of horse mackerel the determination of stage of ripening and sex is unnecessary as ripe fish are at disposal in a practically unlimited quantity.

[4] = system: common carp (Cyprinus carpio L.); assay: Induced artificial propagation of common carp; settings: single dose of 70 μg if ripe for ovulation, or last of the 5 μg doses
Protocol: In any season of the year and at any temperature mature breeders are selected from the stock and transported to the place of propagation. Sexes are segregated and the stage of ripening of sexual products is determined according to Example 1. If fish are ripe for ovulation, a single dose of 70 μg of decapeptide of formula (III) is administered, including males. Fish not yet ripe for making ovulate should be kept at the temperature of natural spawning and the above-mentioned compound should be administered in doses of 5 μg each, at least 2 but at most 15 times as long as the nucleus of the egg cell moves from the centre to the periphery. The number of treatments depends on the actual stage of maturity of sexual products in comparison to the stage "ripe for ovulation". The process of ripening lasts at least 100 but most 750 day-grades in the temperature interval of 20°-24° C. Ovulation takes place 240-260 hour-grades after the administration of the last dose. Then sexual products are stripped in 40-60 minutes. cl EXAMPLE 3

[5] = system: silver carp (Hypophthalmichthys molitrix Val.); assay: Induced artificial propagation of silver carp; settings: single dose of 100 μg if ripe for ovulation, or last of the 10 μg doses
Protocol: Sexually mature fish are selected from the stock and transported to the place of propagation. Sexes are segregated. Stage of ripening of sexual products is determined according to Example 1 and fish ripe for ovulation--including males--are treated with a single dose of 100 μg of decapeptide of formula (III). Fish not yet ripe for ovulation should be kept at the temperature of natural spawning and the above-mentioned compound should be administered in doses of 10 μg each, at least 2 but at most 10 times as long as the nucleus of egg cell moves from the centre to the periphery. The number of treatments depends on the actual stage of maturity of sexual products in comparison to the stage "ripe for ovulation". This process of ripening lasts at least 150, in extreme cases to 850, day-grades in the water temperature interval of 20°-26° C. Ovulation takes place 240-260 hour-grades after the administration of the last dose. Thereafter sexual products are stripped.

Row | Compound | Ovulation takes place after the administration of the last dose [1] | Spawning takes place after the administration of the last dose [2] | Ovulation takes place in [3] | Ovulation takes place after the administration of the last dose [4] | Ovulation takes place after the administration of the last dose [5]
1 | CC(C)C[C@H](NC(=O)[C@@H](Cc1ccccc1)NC(=O)[C@H](Cc1ccc(O)cc1)NC(=O)[C@H](CO)NC(=O)[C@H](Cc1c[nH]c2ccccc12)NC(=O)[C@H](Cc1c[nH]cn1)NC(=O)[C@@H]1CCC(=O)N1)C(=O)N[C@@H](CCC(N)=O)C(=O)N1CCC[C@H]1C(=O)NCC(N)=O [formula (II), Glp-His-Trp-Ser-Tyr-D-Phe-Leu-Gln-Pro-Gly-NH2] ([pGlu]HWSY[dF]LQPG-NH2) | 24 to 32 h | 24 to 36 h | 24 h | – | –
2 | CC(C)C[C@H](NC(=O)[C@H](Cc1c[nH]c2ccccc12)NC(=O)[C@@H](Cc1ccccc1)NC(=O)[C@H](Cc1ccc(O)cc1)NC(=O)[C@H](CO)NC(=O)[C@H](Cc1c[nH]c2ccccc12)NC(=O)[C@H](Cc1c[nH]cn1)NC(=O)[C@@H]1CCC(=O)N1)C(=O)N1CCC[C@H]1C(=O)NCC(N)=O [formula (III), Glp-His-Trp-Ser-Tyr-D-Phe-Trp-Leu-Pro-Gly-NH2] ([pGlu]HWSY[dF]WLPG-NH2) | – | – | – | 240-260 hour-grades | 240-260 hour-grades
